Reference: ChEMBL document CHEMBL1201862, “PubChem BioAssay data set” (2004)
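Step 1: Grow cells in 96-well plates. Step 2: Expose to compound for 48 hours at 5 concentrations. Step 3: Interpolate endpoints linearly; if unreached, use highest concentration. GI50 = concentration required for 50% inhibition of growth.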 Activity calls are given as the source filed them. Cut-off read from the data, not from the text of the source: active = GI50 up to about 1.1 µM and inactive = higher.

What was measured:
Test in all cases: inhibition of tumour cell growth, NCI panel, 48 h
TK-10 = test system: TK-10
SK-MEL-5 = test system: SK-MEL-5
HCT-15 = test system: HCT-15
Malme-3M = test system: Malme-3M
A549 = test system: A549
OVCAR-5 = test system: OVCAR-5
CCRF-CEM = test system: CCRF-CEM
PC-3 = test system: PC-3
BT-549 = test system: BT-549
OVCAR-8 = test system: OVCAR-8
SW-620 = test system: SW-620
NCI/ADR-RES = test system: NCI/ADR-RES
A498 = test system: A498
HOP-62 = test system: HOP-62
EKVX = test system: EKVX
MOLT-4 = test system: MOLT-4
LOX IMVI = test system: LOX IMVI
IGROV-1 = test system: IGROV-1
RPMI-8226 = test system: RPMI-8226

Row | Structure (SMILES) | GI50 (TK-10) | GI50 (SK-MEL-5) | GI50 (HCT-15) [µM] | GI50 (Malme-3M) | GI50 (A549) | GI50 (OVCAR-5) | GI50 (CCRF-CEM) | GI50 (PC-3) | GI50 (BT-549) | GI50 (OVCAR-8) | GI50 (SW-620) | GI50 (NCI/ADR-RES) | GI50 (A498) | GI50 (HOP-62) | GI50 (EKVX) | GI50 (MOLT-4) | GI50 (LOX IMVI) | GI50 (IGROV-1) | GI50 (RPMI-8226)
1 | O=C(c1cc(Cl)cc(Cl)c1)N(C(=S)OC12CC3CC(CC(C3)C1)C2)c1ccccc1 | 53.3 µM (inactive) | 28.3 µM (inactive) | 34.6 | 49.7 µM (inactive) | 42.7 µM (inactive) | 46.3 µM (inactive) | 5.24 µM (inactive) | 35.2 µM (inactive) | 50.2 µM (inactive) | 41.7 µM (inactive) | 39.5 µM (inactive) | 37.3 µM (inactive) | 34.9 µM (inactive) | 42.7 µM (inactive) | 21.8 µM (inactive) | – | – | – | –
2 | c1ccc(C2C3=C(CCCC3)Nc3nnnn32)cc1 (stereo not drawn) | – | 48.9 µM (inactive) | > 100 | – | 64 µM (inactive) | > 100 µM (inactive) | – | 68.1 µM (inactive) | 34.8 µM (inactive) | > 100 µM (inactive) | > 100 µM (inactive) | 98.9 µM (inactive) | 19.2 µM (inactive) | > 100 µM (inactive) | – | 53 µM (inactive) | > 100 µM (inactive) | > 100 µM (inactive) | –
3 | C#CCCOC(=O)c1ccccc1OC(C)=O | > 100 µM (inactive) | > 100 µM (inactive) | > 100 | – | – | > 100 µM (inactive) | > 100 µM (inactive) | > 100 µM (inactive) | > 100 µM (inactive) | > 100 µM (inactive) | > 100 µM (inactive) | > 100 µM (inactive) | > 100 µM (inactive) | 70.3 µM (inactive) | > 100 µM (inactive) | > 100 µM (inactive) | > 100 µM (inactive) | > 100 µM (inactive) | > 100 µM (inactive)
4 | O=C(CCCn1ccnc1[N+](=O)[O-])NCCn1ccnc1[N+](=O)[O-] | > 100 µM (inactive) | > 100 µM (inactive) | > 100 | > 100 µM (inactive) | > 100 µM (inactive) | > 100 µM (inactive) | > 100 µM (inactive) | > 100 µM (inactive) | > 100 µM (inactive) | > 100 µM (inactive) | > 100 µM (inactive) | > 100 µM (inactive) | – | > 100 µM (inactive) | > 100 µM (inactive) | > 100 µM (inactive) | > 100 µM (inactive) | > 100 µM (inactive) | > 100 µM (inactive)
5 | C[C@@H](CCO)OC1OC(COC(=O)C(C)(C)C)C(OC(=O)C(C)(C)C)C(OC(=O)C(C)(C)C)C1OC(=O)C(C)(C)C (stereo partly drawn) | 50.7 µM (inactive) | 4.97 µM (inactive) | 32.4 | – | 14.1 µM (inactive) | > 100 µM (inactive) | 33.7 µM (inactive) | 22.2 µM (inactive) | 73.5 µM (inactive) | 96.8 µM (inactive) | 51.1 µM (inactive) | > 100 µM (inactive) | > 100 µM (inactive) | 85.5 µM (inactive) | 48.4 µM (inactive) | 12.9 µM (inactive) | 51.4 µM (inactive) | 28.2 µM (inactive) | 15.5 µM (inactive)
6 | CC12CCCC(C(=O)O)(C1)[C@H](C(C)(C)C(=O)O)CC2 (stereo partly drawn) | > 100 µM (inactive) | > 100 µM (inactive) | > 100 | > 100 µM (inactive) | > 100 µM (inactive) | > 100 µM (inactive) | > 100 µM (inactive) | > 100 µM (inactive) | > 100 µM (inactive) | > 100 µM (inactive) | > 100 µM (inactive) | > 100 µM (inactive) | – | > 100 µM (inactive) | > 100 µM (inactive) | > 100 µM (inactive) | > 100 µM (inactive) | > 100 µM (inactive) | > 100 µM (inactive)
7 | COc1cc2c(cc1C)NC(=O)/C2=C/c1cccnc1 | 11.9 µM (inactive) | 11 µM (inactive) | 11 | 16.4 µM (inactive) | – | 13.6 µM (inactive) | 7.01 µM (inactive) | 17.9 µM (inactive) | 22.6 µM (inactive) | 14.6 µM (inactive) | 20.8 µM (inactive) | 12.1 µM (inactive) | 10.8 µM (inactive) | 11.7 µM (inactive) | 18.3 µM (inactive) | 1.23 µM (inactive) | – | – | –
8 | COC(=O)C(CCSc1ccccc1)C(=O)OC | – | > 100 µM (inactive) | > 100 | 10.8 µM (inactive) | > 100 µM (inactive) | > 100 µM (inactive) | > 100 µM (inactive) | > 100 µM (inactive) | > 100 µM (inactive) | > 100 µM (inactive) | > 100 µM (inactive) | > 100 µM (inactive) | > 100 µM (inactive) | > 100 µM (inactive) | > 100 µM (inactive) | > 100 µM (inactive) | – | > 100 µM (inactive) | > 100 µM (inactive)
9 | C(=N\N=C1NCCCCN1)/c1ccc2ccccc2c1 | 37.9 µM (inactive) | 17.4 µM (inactive) | 28.1 | 16.3 µM (inactive) | 50.2 µM (inactive) | 25.2 µM (inactive) | 33.7 µM (inactive) | 29.6 µM (inactive) | 37.2 µM (inactive) | 43.7 µM (inactive) | 22.7 µM (inactive) | 98.2 µM (inactive) | – | 42.2 µM (inactive) | 46.7 µM (inactive) | 23.5 µM (inactive) | 15.7 µM (inactive) | 40.9 µM (inactive) | 27.5 µM (inactive)
10 | O=C(O)c1nc2ccc(C(F)(F)F)cc2nc1Nc1ccc(Cl)c(Cl)c1 | 20 µM (inactive) | 10.6 µM (inactive) | 8.97 | 13.3 µM (inactive) | – | 14.4 µM (inactive) | – | 4.58 µM (inactive) | 2.62 µM (inactive) | 4.91 µM (inactive) | 8.15 µM (inactive) | 5.96 µM (inactive) | 13.6 µM (inactive) | 7.85 µM (inactive) | 7.26 µM (inactive) | 4.37 µM (inactive) | 9.82 µM (inactive) | 12.8 µM (inactive) | –
11 | Cc1ccc2c(c1C)C(=O)C1(C2)Cc2ccc3c(c2C1=O)CCC3 (stereo not drawn) | > 100 µM (inactive) | > 100 µM (inactive) | > 100 | > 100 µM (inactive) | > 100 µM (inactive) | > 100 µM (inactive) | > 100 µM (inactive) | > 100 µM (inactive) | > 100 µM (inactive) | > 100 µM (inactive) | > 100 µM (inactive) | > 100 µM (inactive) | > 100 µM (inactive) | – | > 100 µM (inactive) | > 100 µM (inactive) | – | > 100 µM (inactive) | > 100 µM (inactive)
12 | Fc1ccc(C2NC(=S)NC3=C2CCOc2c3ccc3ccccc23)cc1 (stereo not drawn) | 44.9 µM (inactive) | 11.3 µM (inactive) | 18.7 | 17.4 µM (inactive) | 31.3 µM (inactive) | 94.6 µM (inactive) | 54 µM (inactive) | 50.8 µM (inactive) | 58.1 µM (inactive) | > 100 µM (inactive) | 39.1 µM (inactive) | 18.9 µM (inactive) | 18.9 µM (inactive) | 64.9 µM (inactive) | 51.9 µM (inactive) | 19.9 µM (inactive) | – | 47.1 µM (inactive) | 19.8 µM (inactive)
13 | c1ccc2c(c1)ccc1nc(-c3ccc4c(c3)OCO4)c3c(c12)CCCC3 | – | – | 6.07 | 20.8 µM (inactive) | 20.6 µM (inactive) | 93.5 µM (inactive) | 25.9 µM (inactive) | 8.75 µM (inactive) | 17 µM (inactive) | 20.2 µM (inactive) | 29.2 µM (inactive) | 17.7 µM (inactive) | 14.6 µM (inactive) | 41.9 µM (inactive) | 37.1 µM (inactive) | 8.26 µM (inactive) | – | – | 15.5 µM (inactive)
14 | O=C(O)c1nc2ccc(C(F)(F)F)cc2nc1NCc1ccc(Cl)c(Cl)c1 | – | 21.4 µM (inactive) | 18 | – | 16.1 µM (inactive) | 13.5 µM (inactive) | 23.4 µM (inactive) | 15.3 µM (inactive) | 17.5 µM (inactive) | 16.3 µM (inactive) | 19.4 µM (inactive) | 22.2 µM (inactive) | 17.5 µM (inactive) | 14.8 µM (inactive) | 15.8 µM (inactive) | 12.3 µM (inactive) | 15.1 µM (inactive) | 13.9 µM (inactive) | 27.7 µM (inactive)
15 | CCn1c2ccccc2c2ccc(C3C4C(=O)N(c5cccc6ccccc56)C(=O)C4ON3C(C(N)=O)c3ccccc3)cc21 (stereo not drawn) | 7.16 µM (inactive) | 14.2 µM (inactive) | 13.3 | > 25 µM (inactive) | > 25 µM (inactive) | 15.1 µM (inactive) | – | 14.2 µM (inactive) | 14.9 µM (inactive) | > 25 µM (inactive) | 12.8 µM (inactive) | > 25 µM (inactive) | 2.63 µM (inactive) | > 25 µM (inactive) | 12.9 µM (inactive) | 7.53 µM (inactive) | 13.2 µM (inactive) | 13.4 µM (inactive) | –
16 | CCOC(=O)C1(C(=O)OCC)OC(C)=NC1(C(=O)OC)C(=O)OC | > 100 µM (inactive) | > 53.7 µM (inactive) | > 100 | > 100 µM (inactive) | > 100 µM (inactive) | > 100 µM (inactive) | > 100 µM (inactive) | > 100 µM (inactive) | > 31.6 µM (inactive) | > 100 µM (inactive) | > 100 µM (inactive) | > 100 µM (inactive) | > 100 µM (inactive) | > 100 µM (inactive) | > 26.2 µM (inactive) | > 87.1 µM (inactive) | > 100 µM (inactive) | > 100 µM (inactive) | –
